Structures are written as SMILES.

The test system of test [1] is HIF1α. In words: HIF1α level in RCC4 cells (Western blot). The test is classed as cell-based. Particulars: 6 hours under normoxia, independently of VHL presence. The source says: (§1) HCT116, SW480, HT29, DLD1, and RKO cells were obtained from American Type Culture Collection. HCT116 and HT29 cells were maintained in McCoy's 5A medium (Hyclone) with 10% fetal bovine serum (FBS, Hyclone) and 1% penicillin/streptomycin (P/S). SW480, DLD1, and RCC4 cells were maintained in Dulbecco's modified Eagle medium (Hyclone) with 10% FBS and 1% P/S. RKO cells were maintained in RPMI 1640 medium (Hyclone) with 10% FBS and 1% P/S. Cells were regularly tested and authenticated. All cell lines were maintained at 37° C. in 5% CO2. As for hypoxia treatment, cells were kept in a hypoxia chamber (In vivo^2, Ruskinn) which maintains 0.5% O2.
(§2) Treated cells were lysed in RIPA buffer (Sigma). Protein concentrations were determined using a BCA Protein Assay Kit (Life Technologies). Equal amounts of total protein were boiled with LDS sample buffer (Thermo Fisher Scientific) and reducing agent (Invitrogen). Samples were analyzed with SDS-PAGE. Proteins were transferred to an Immobilon-P PVDF membrane (EMD Millipore). First and secondary antibodies were added in order. Signals were detected after addition of the ECL western blotting substrate (Thermo Fisher Scientific).
(In general: Immunoblotting shows a protein as a band on a membrane.)

Test [2] relates to HIF1α. As to the kind of experiment: Heat shock-induced HIF1α level in HCT116 (Western blot). The format is cell-based. Particulars: HCT116, normoxia.
From the text: as §1, §2

Consider `O=C1NC(=NCc2cccs2)S/C1=C\c1ccc2ncccc2c1` [Ro-3306], for which, in the test on HIF1α [1], the “level of HIF1α” value was “decreases”. Besides, the “reversal of heat shock upregulation of HIF1α” value with HIF1α [2] is recorded as “reversed”.

The values above are taken from patent US10729692B2, “Dual inhibition of CDK and HSP90 destabilize HIF1alpha and synergistically induces cancer cell death” (Institute For Cancer Research, priority 2017, dated 2020).
